“Also recorded” adds a separate entry of the source. Where two headings read alike, the source gives them in different places.
What was measured:
Tlp2 [1] = molecular target: T1, Tlp2 (Campylobacter jejuni, UniProt Q0PBZ3); type: binding
Protocol: (§1) Glycan (>400 monosaccharides or complex glycans) and small molecule arrays containing amino acids and salts were performed as described previously by Day et al. ([67]). Briefly, 1 μg of purified recombinant protein was complexed with anti-His antibody (Cell Signaling Technology) and rabbit anti-mouse/goat anti-rabbit Alexa 555-IgG (Thermo Scientific) at a molar ratio of 1:0.5:0.25 and then incubated on the array for […] in phosphate-buffered saline (PBS). The array slides were scanned at 488/520 nm and analyzed using InnoScan 1100 with MAPIX software. All arrays were performed in triplicate with a total of 12 data points for each glycan tested; the complete data set and MIRAGE (i.e., minimum information regarding a glycomics experiment) results are shown in Tables S3 and S8.
(§2) Table S8 - Supplementary glycan microarray document based on M IRAGE guidelines. D O I:
(§3) Classification Guidelines
(§4) 1. Sample: Glycan Binding Sample
(§5) Origin: Helicobacter pylori SS1; produced as a recombinant His - tagged protein in E.
(§6) The preparation of Tlp2,3, and 4 is explained in the Materials and Methods section:
(§7) Expression and purification of the periplasmic domain of Tlp2,3, and 4.
(§8) Sample Sample is a His Tagged protein containing only the periplasmic receptor domain of the modifications full length Tlp2,3, and 4transmembrane protein.
(§9) Please see Materials and Methods: Tlps 2/3/4 bind to a range of ligands, including […]
(§10) Proteins were complexed with mouse anti- his antibody, with secondary and tertiary AlexaFluor555 antibodies (rabbit anti-mouse, goat anti-rabbit) at a molar ratio of 4:2:1.
(§11) The protein/antibody complex was incubated on ice for 10 mins prior to placing on the Assay protocol array. Arrays were performed with 1 µg of complexed protein incubated on the array for 20 min. Arrays were then washed 3 times in Array PBS (PBS + 2mM MgCl2 + 2mM CaCl2) then dried by centrifugation for 3 min at 300 x g . Scanning was performed us ing an Innopsys InnoScan 1100AL and analyzed using Mapix (Innopsys). Yes/no binding was determined by six positive replicate spots in three replicate experiments. Positive […]
(§12) Glycan Glycans in this study are listed in Table S2 and is a published library in doi:
(§13) Glycans were prepared in one of two ways for printing:
(§14) Glycan 1. Glycans (with IDs in number/letter format; e.g. 1A, 4C, 7K) were sourced modifications commercially from Dextra Laboratories, Elicityl and Carbosythn and were made into glycoamines using the protocol published in Day et al 2009 (doi:
(§15) Glycan arrays: We only use glycan arrays as a yes/no binding tool. Due to this we look only at binding that is unambiguously above background vs lack of binding above background. Average background + 3x standard deviation of the background of 20 sets of 4 spots of DMF:DMSO only spots is applied to determine if binding observed is […]
(§16) Only spots with values equal to or greater than this value were considered as binding from data of any tested slide. These values are slide […]
(§17) Data Small molecule arrays: We only use amino acid arrays as a yes/no binding tool. Due interpretation to this we look only at binding that is unambiguously above background vs lack of binding above background. Average background + 3x standard deviation of the background of 6 spots of PBS + 2% glycerol only spots is applied to determine if […]
(§18) Only spots with values equal to or greater than this value were considered as binding from data of any tested slide. These values are slide dependent. […]

Tlp4 [2] = molecular target: T2, Tlp4 (Campylobacter jejuni, UniProt Q0PBP3); type: binding
T2 sequence (Q0PBP3 entry or part of it): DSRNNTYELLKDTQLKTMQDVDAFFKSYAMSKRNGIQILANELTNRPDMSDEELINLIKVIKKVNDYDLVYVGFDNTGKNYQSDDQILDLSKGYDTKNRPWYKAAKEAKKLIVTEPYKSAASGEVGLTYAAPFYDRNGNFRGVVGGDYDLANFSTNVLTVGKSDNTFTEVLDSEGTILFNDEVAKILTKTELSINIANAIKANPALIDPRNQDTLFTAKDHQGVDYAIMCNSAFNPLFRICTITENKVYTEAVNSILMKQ
Protocol: as §1, §2, §3, §4, §5, §6, §7, §8, §9, §10, §11, §12, §13, §14, §15, §16, §17, §18

Tlp3 [3] = molecular target: T3, Tlp3 (Campylobacter jejuni, UniProt Q0P864); assay: biochemical; type: binding
T3 sequence (Q0P864 entry or part of it): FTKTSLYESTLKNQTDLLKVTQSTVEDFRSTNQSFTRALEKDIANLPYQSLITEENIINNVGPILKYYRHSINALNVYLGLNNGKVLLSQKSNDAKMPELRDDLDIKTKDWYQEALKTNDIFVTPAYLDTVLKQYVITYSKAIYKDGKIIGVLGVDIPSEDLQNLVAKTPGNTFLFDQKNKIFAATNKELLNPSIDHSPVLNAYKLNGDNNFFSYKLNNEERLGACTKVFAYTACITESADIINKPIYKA
Protocol: His-tagged proteins (Tlp2, -3, and -4) were prepared as previously described ([11]) DNA segments encoding the periplasmic sensory domains (33 to 286 amino acids) of Tlp2 and (38 to 297 amino acids) of Tlp4 were amplified (see Table S7), ligated into pGEM-T Easy (Promega) and subcloned into pET-19b (Novagen) (see Table S6). Recombinant proteins were expressed in E. coli BL21(DE3) using 1 mM IPTG (isopropyl-β-D-thiogalactopyranoside) and purified using His-select-nickel chromatography as described previously ([8], [11]). […] Protein concentrations were determined using a NanoDrop spectrophotometer (Thermo Fisher).
(§19) Surface plasmon resonance (SPR) experiments were performed as described previously ([10], [11]) with the following modifications. […] All ligands were prepared in PBS (pH 7.2) and serially diluted from 0.2 to 0.0125 mM. A 10-min dissociation period was allocated after the introduction of each analyte. SPR experiments were performed in single-cycle kinetics mode using the BIAcore S200 biosensor system (Cytiva) at 25°C in PBS (pH 7.2) at a flow rate of 30 μL/min. The equilibrium dissociation constant (KD) for each analyte was determined using BIAcore S200 Evaluation software with a report point 4 s after the injection stop to account for the bulk transfer of the small molecule against a large amount of immobilized protein (as shown in Fig. S5).

Tlp2 [4] = type: cell-based, C. jejuni 11168-O; conditions: nutrient-depleted chemotaxis assay
Protocol: (§20) The biological relevance of the binding specificities of the Tlp2,3,4 cluster was assessed by examining chemotactic responses of C. jejuni 11168-O tlp2, tlp3, and tlp4 wild-type (WT) and mutant strains using a nutrient-depleted chemotaxis assay. All ligands, with the exception of lysine and cysteine, interacted with Tlp2 and Tlp4 as attractants (Table 1), showing an ~1- to ~2-log decrease (P < 0.05) in migration toward the ligand compared to the WT strain.
(§21) Chemotaxis assays—the nutrient-depleted chemotaxis assay and the modified hard agar plug assay (tHAP)—were performed as previously described ([11], [34]). The chemotactic responses of all isogenic strains were compared to that of the C. jejuni 11168-O wild-type strain to distinguish between chemoattractants and chemorepellents. For the nutrient-depleted chemotaxis and modified hard agar plug (tHAP) assays, all differences were calculated as changes on a log10 scale. Controls were provided by using nonmotile (C. jejuni 81116 flaAB) and nonchemotactic (C. jejuni NCTC 11168 cheY) mutants ([69]) and mucin as negative and positive controls ([10]).

Tlp2 [5] = molecular target: T1, Tlp2; assay: biochemical; type: binding
Protocol: (§22) His-tagged proteins (Tlp2, -3, and -4) were prepared as previously described ([11]) DNA segments encoding the periplasmic sensory domains (33 to 286 amino acids) of Tlp2 and (38 to 297 amino acids) of Tlp4 were amplified (see Table S7), ligated into pGEM-T Easy (Promega) and subcloned into pET-19b (Novagen) (see Table S6). Recombinant proteins were expressed in E. coli BL21(DE3) using 1 mM IPTG (isopropyl-β-D-thiogalactopyranoside) and purified using His-select-nickel chromatography as described previously ([8], [11]). The purity of the proteins was confirmed by SDS-PAGE and Western blot analysis with anti-His antibodies (Bio-Rad). Protein concentrations were determined using a NanoDrop spectrophotometer (Thermo Fisher).
as §19, with “modifications. Briefly, purified proteins were diluted to 0.15 μM in sodium acetate (pH 4.0) and immobilized onto an active flow cell of a CM5 sensor chip with a flow rate of 5 μL/min for 7 min of contact time using a standard amine coupling protocol. Immobilized protein levels for all three proteins ranged from 6028.3 to 9779.3 response units (RU) providing a minimum expected response maximum (RMax) between 20 and 50 RU for the small molecules tested.” for “modifications.”

Tlp4 [6] = molecular target: T2, Tlp4; assay: biochemical; type: binding
Protocol: as §22
as §19, with “modifications. Briefly, purified proteins were diluted to 0.15 μM in sodium acetate (pH 4.0) and immobilized onto an active flow cell of a CM5 sensor chip with a flow rate of 5 μL/min for 7 min of contact time using a standard amine coupling protocol. Immobilized protein levels for all three proteins ranged from 6028.3 to 9779.3 response units (RU) providing a minimum expected response maximum (RMax) between 20 and 50 RU for the small molecules tested.” for “modifications.”

Tlp3 [7] = molecular target: T3, Tlp3; assay: Glycan/small molecule arrays with Tlp3; conditions: yes/no binding
Protocol: as §1, §2, §3, §4, §5, §6, §7, §8, §9, §10, §11, §12, §13, §14, §15, §16, §17, §18

WT Tlp3^LBD = assay: SPR competition assay (A-B-A inject); type: binding, Campylobacter jejuni; conditions: 15 seconds after injection-B; glucose 300 µM, fucose 300 μM, malic acid 200 μM
Protocol: . Competition A-B-A analyses determine the specificity of the potential ligand-binding site preferences of WT Tlp3^LBD. The bound protein is saturated with the first analyte (A), followed by the introduction of a second analyte (B); the assay is designed to show whether a cumulative response is observed after the second analyte (B) is added. A cumulative response indicates two independent binding sites, whereas the lack of a cumulative response indicates a single site where ligands compete for binding, i.e., when analyte A occupies a ligand binding site, analyte B cannot bind. […] All response data were normalized to a 100-Da molecular weight for each analyte, allowing direct comparison of the responses. Both actual RU values and theoretical values are recorded for comparison.
Figure S6. […] A) Injections are […]
at 300 μM for 60 seconds). Final responses units (RU) of injections are recorded (indicated by dashed vertical […]
81 at 15 s econds after injection- B and l fu cose […]
and fucose were compet ed was 4.4 RU ± 0.46. As this value sits be low 5 RU, it indicates direct competition for […]
Final respons es units (RU) of injections ar e re cor ded (indicated […]
As this value sits between
5.07- 13.5 RU, it indicates direct competition for the same site with glucos e replacing some of the bound malic acid during the 60 second injection- B.

Tlp3^LBD W151A = Tlp3^LBD W151A (Campylobacter jejuni, UniProt Q0P864, W151A); assay: biochemical
Tlp3^LBD W151A, sequence (Q0P864 41-290 W151A): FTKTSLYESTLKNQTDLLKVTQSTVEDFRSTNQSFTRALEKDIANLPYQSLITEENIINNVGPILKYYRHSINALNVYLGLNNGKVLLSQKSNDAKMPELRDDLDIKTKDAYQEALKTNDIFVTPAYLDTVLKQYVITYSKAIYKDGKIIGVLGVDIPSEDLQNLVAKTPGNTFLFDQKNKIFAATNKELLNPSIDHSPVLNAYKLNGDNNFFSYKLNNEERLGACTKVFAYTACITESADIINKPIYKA

Tlp3^LBD K149A = Tlp3^LBD K149A (Campylobacter jejuni, UniProt Q0P864, K149A); assay: biochemical
Tlp3^LBD K149A, sequence (Q0P864 41-290 K149A): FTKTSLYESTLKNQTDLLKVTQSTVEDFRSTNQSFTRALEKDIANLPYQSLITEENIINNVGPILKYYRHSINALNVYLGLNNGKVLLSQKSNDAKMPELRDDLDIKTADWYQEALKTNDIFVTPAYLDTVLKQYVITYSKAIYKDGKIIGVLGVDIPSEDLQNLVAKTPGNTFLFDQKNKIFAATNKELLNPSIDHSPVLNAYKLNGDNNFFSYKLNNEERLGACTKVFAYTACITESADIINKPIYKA

Tlp3 [8] = type: cell-based, C. jejuni 11168-O; conditions: chemotaxis of mutant compared to WT strain
Protocol: as §20, §21

Tlp3^LBD D170A = Tlp3^LBD D170A (Campylobacter jejuni, UniProt Q0P864); assay: biochemical
Tlp3^LBD D170A, sequence (Q0P864 41-290 T170A): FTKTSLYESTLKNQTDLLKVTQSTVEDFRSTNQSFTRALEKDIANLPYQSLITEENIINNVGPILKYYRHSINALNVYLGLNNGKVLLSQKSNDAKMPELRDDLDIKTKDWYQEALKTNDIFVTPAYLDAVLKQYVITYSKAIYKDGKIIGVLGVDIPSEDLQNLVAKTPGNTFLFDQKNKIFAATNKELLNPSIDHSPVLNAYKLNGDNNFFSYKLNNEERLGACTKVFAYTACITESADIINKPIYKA

Tlp3^LBD D196A = Tlp3^LBD D196A (Campylobacter jejuni, UniProt Q0P864, D196A); assay: biochemical
Tlp3^LBD D196A, sequence (Q0P864 41-290 D196A): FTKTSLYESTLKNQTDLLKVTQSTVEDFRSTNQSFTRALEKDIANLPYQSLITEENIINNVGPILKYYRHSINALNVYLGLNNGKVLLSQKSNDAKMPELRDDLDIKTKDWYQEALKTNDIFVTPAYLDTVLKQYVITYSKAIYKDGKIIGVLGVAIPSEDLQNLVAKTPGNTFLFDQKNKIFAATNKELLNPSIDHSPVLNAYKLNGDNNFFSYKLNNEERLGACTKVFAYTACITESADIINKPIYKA

Tlp3^LBD D169A = Tlp3^LBD D169A (Campylobacter jejuni, UniProt Q0P864, D169A); assay: biochemical
Tlp3^LBD D169A, sequence (Q0P864 41-290 D169A): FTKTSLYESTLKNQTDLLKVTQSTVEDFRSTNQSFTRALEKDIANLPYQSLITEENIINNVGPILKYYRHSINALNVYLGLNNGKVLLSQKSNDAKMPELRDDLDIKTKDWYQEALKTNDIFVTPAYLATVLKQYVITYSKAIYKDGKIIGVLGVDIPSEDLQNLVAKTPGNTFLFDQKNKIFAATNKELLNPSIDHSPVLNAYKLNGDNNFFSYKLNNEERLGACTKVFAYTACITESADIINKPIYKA

[9] = SPR KD, mean ± SD, NB = no binding, read-out: Tlp3 Affinity
[10] = SPR KD, mean ± SD, NB = no binding, read-out: Tlp2 Affinity
[11] = SPR KD, mean ± SD, NB = no binding, read-out: Tlp4 Affinity

T1 sequence (Q0PBZ3 entry or part of it): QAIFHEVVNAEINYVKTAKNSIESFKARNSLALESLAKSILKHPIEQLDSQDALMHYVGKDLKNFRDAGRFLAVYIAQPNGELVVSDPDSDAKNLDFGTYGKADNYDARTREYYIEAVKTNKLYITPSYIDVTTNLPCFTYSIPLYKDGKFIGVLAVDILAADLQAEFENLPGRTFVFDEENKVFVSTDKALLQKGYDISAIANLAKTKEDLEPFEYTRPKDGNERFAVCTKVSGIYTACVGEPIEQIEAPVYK

N[C@@H](CS)C(=O)O [Cysteine]
binding to Tlp2 on glycan/small molecule array (Tlp2 [1]; yes/no binding): bound | binding to Tlp4 on glycan/small molecule array (Tlp4 [2]; yes/no binding): bound | Kd (Tlp3 [3]; [9]): > 200 µM | chemotactic response via Tlp2 (Tlp2 [4]): did not generate any significant chemotactic response; also recorded: did not affect the chemotactic movement | Kd (Tlp2 [5]; [10]): 10.8 ± 3.3 µM | Kd (Tlp4 [6]; [11]): 5.7 ± 5.8 µM

CSCC[C@H](N)C(=O)O [Methionine]
binding to Tlp2 on glycan/small molecule array (Tlp2 [1]): bound | binding to Tlp4 on glycan/small molecule array (Tlp4 [2]): bound | Kd (Tlp3 [3]; read-out: Tlp3 Affinity): > 200 µM | Kd (Tlp2 [5]): 1.9 ± 1.2 µM | Kd (Tlp4 [6]): 6 ± 4.7 µM

O=C[C@H](O)[C@@H](O)[C@@H](O)[C@H](O)CO [Galactose]
binding to Tlp2 on glycan/small molecule array (Tlp2 [1]): interacted | binding to Tlp4 on glycan/small molecule array (Tlp4 [2]): interacted | binding to Tlp3 on glycan/small molecule array (Tlp3 [7]): interacted | Kd (Tlp2 [5]): 17.2 ± 1.3 µM | Kd (Tlp4 [6]): 18.3 ± 2.1 µM

O=C(O)CC(O)C(=O)O (stereo not drawn) [Malic acid]
Kd (Tlp2 [5]; [10]): > 10000 µM | Kd (Tlp4 [6]; [11]): > 10000 µM | SPR response of single analyte (WT Tlp3^LBD): 13.5 RU

NC(=O)C[C@H](N)C(=O)O [Asparagine]
binding to Tlp2 on glycan/small molecule array (Tlp2 [1]; yes/no binding): bound | binding to Tlp4 on glycan/small molecule array (Tlp4 [2]; yes/no binding): bound | Kd (Tlp3 [3]; [9]): > 200 µM | Kd (Tlp2 [5]; [10]): 12.8 ± 5.1 µM | Kd (Tlp4 [6]; [11]): 45.1 ± 6.1 µM

N[C@H]1C(O)O[C@H](CO)[C@@H](O)[C@@H]1O (stereo partly drawn) [Glucosamine]
Kd (Tlp3^LBD W151A): 34.3 ± 12.7 µM | Kd (Tlp3^LBD K149A): 24.3 ± 2.1 µM | Kd (Tlp3 [3]): 7.1 ± 2.9 µM | Tlp3 CR (chemoresponse) (Tlp3 [8]): R | Kd (Tlp3^LBD D170A): 39.7 ± 8.6 µM | Kd (Tlp2 [5]; [10]): > 200 µM | Kd (Tlp4 [6]; [11]): > 200 µM | Kd (Tlp3^LBD D196A): 45.5 ± 7.3 µM | Kd (Tlp3^LBD D169A): 38.4 ± 6.45 µM

N[C@@H](CC(=O)O)C(=O)O [Aspartate]
binding to Tlp2 on glycan/small molecule array (Tlp2 [1]): bound | binding to Tlp4 on glycan/small molecule array (Tlp4 [2]): bound | binding to Tlp3 on glycan/small molecule array (Tlp3 [7]): bind specifically | Kd (Tlp2 [5]): 95.4 ± 0.9 µM | Kd (Tlp4 [6]): 75.3 ± 8.1 µM

CC[C@H](C)[C@H](N)C(=O)O [Isoleucine]
Kd (Tlp2 [5]; [10]): > 200 µM | Kd (Tlp4 [6]; [11]): > 200 µM

N[C@@H](CO)C(=O)O [Serine]
binding to Tlp2 on glycan/small molecule array (Tlp2 [1]; yes/no binding): bound | binding to Tlp4 on glycan/small molecule array (Tlp4 [2]; yes/no binding): bound | Kd (Tlp3 [3]; [9]): > 200 µM | Kd (Tlp2 [5]; [10]): 6.9 ± 2.4 µM | Kd (Tlp4 [6]; [11]): 14.3 ± 3.2 µM

— publication PMC9769880, “Diverse Sensory Repertoire of Paralogous Chemoreceptors Tlp2, Tlp3, and Tlp4 in Campylobacter jejuni” (Microbiology Spectrum, 2022)
